The record followed here is patent US8541670B2, “Compositions and methods for inhibiting tumor cell growth” (priority 2007, dated 2013).

In experiment [1] the target is Abl (Homo sapiens, UniProt P00519). As to the kind of experiment: In vitro kinase assay Abl. To be noted: ten times higher concentration than 0.1 μM. The experiment is classed as biochemical. As for the experimental part:
As a specific substrate, the phosphorylation level of GSK-3[…] at Ser-9 was also evaluated. […] The decrease was specific to the AKT phosphorylation site on GSK-3[…] at Ser-9, since a change in the phosphorylation level of GSK-3[…] at Tyr-216 or GSK-3[…] at Tyr-279 was not observed. Moreover, the in vivo reduction of the phosphorylation of AKT substrates was more obvious at the injection site, since a significant change in the phosphorylation of AKT substrates in the frontal cortex or cerebellum between the two hemispheres was not observed. […] To test the specificity/selectivity of ZaTa as the inhibitor of AKT1 versus the other major kinases, a series of in vitro kinase assays was performed at IC50 for AKT1 and at ten times higher concentrations. A panel of the following 32 kinases was first tested in vitro using the active form of each kinase and a specific substrate: AKT2, AKT3, PKA, PKC[…], PKC, PI3K[…], PI3K[…], PI3K, SGK, PAK2, PAK3, SAPK2/p38, Abl, CaMKII, CDK1/cyclinB, CDK5/p35, CK1, CK2, CSK, GSK3[…], GSK3[…], JNK1[…]1, MAPK1, p70S6K, PDGFR[…], PDGFR[…], PDK1, PKG1[…], TrkB, JAK2, JAK3, and Syk. […] However, at ten times higher concentration, ZaTa inhibited AKT2 (63%), PI3K[…] (72%), p70S6K (64%), SGK (73%), PAK3 (83%), JAK3 (79%), TrkB (84%), and Abl (42%). […]

Experiment [2] concerns PKA, PKC, CDKs. In words: In vivo phosphorylation of substrates of PKA, PKC, CDKs (consensus-site phospho-specific antibodies). The settings on record: after in vivo injection. Also noted: species or system mouse. How it is done: To analyze in vivo selectivity, ZaTa was injected into one hemisphere and DMSO in the other hemisphere, as above, and a series of western blot analyses was preformed with phospho-specific antibodies which recognize a phosphorylated substrate or each one of the kinases that ZaTa inhibited at higher concentrations in vitro. […] Given the high functional and structural homology between p70S6K and AKT, the in vivo inhibitory effect of ZaTa on p70S6K was contemplated. Furthermore, the in vivo effect of ZaTa on the phosphorylation levels of substrates for PKA, PKC, CDKs using phospho-specific antibodies recognizing the phosphorylated consensus sites of these kinases was analyzed. In contrast to the consistent decrease in phosphorylation of AKT substrates, significant changes in the phosphorylation level of PKA, PKC and CDKs substrates was not observed after in vivo injection of ZaTa. […]

Experiment [3] has as its system AKT. In words: Cell penetration and co-localization of fluorescently labeled ZaTa with AKT. It is filed as cell-based. The settings on record: immunofluorescence. The text has this: Peptides can be very effective inhibitors since they efficiently bind to and inhibit enzymatic activity. However, intracellular delivery of peptides can limit their use. With the exception of a few peptides known as cell-penetrating peptides (CPPs), which have been recognized for their use in site-specific drug delivery, inhibitory peptides can have limited intracellular accumulation in in vivo enzymatic studies. […] Based on the primary structure of the ZaTa peptide (i.e., a peptide having a basic arm of several basic residues at the N-terminus and a polar arm composed of several residues with free hydroxyl group at the C-terminus) and in vivo inhibitory effect in the brain, it was determined whether ZaTa peptide was a CPP. The ZaTa peptide was labeled with a red fluorescent dye at its N-terminus given that its C-terminus was important for inhibitory activity. The efficiency of the labeling and the purity of the labeled peptide were assessed by mass spectrometry.
These different localization patterns of ZaTa within the cell were usually accompanied with redistribution of AKT to the site of ZaTa.
Cell cultures were analyzed by growing cells (1×10^4) on coverslips, fixation for 10 minutes in phosphate-buffered saline (PBS) plus 3.7% formaldehyde, and permeabilization for 2 minutes with cold acetone. […]

Experiment [4] concerns PI3K. In words: Cell-based kinase assay, phosphorylation of intracellular substrate (Ser-241 PDK1). How it is done:
(§1) As a specific substrate, the phosphorylation level of GSK-3[…] at Ser-9 was also evaluated. […] The decrease was specific to the AKT phosphorylation site on GSK-3[…] at Ser-9, since a change in the phosphorylation level of GSK-3[…] at Tyr-216 or GSK-3[…] at Tyr-279 was not observed. Moreover, the in vivo reduction of the phosphorylation of AKT substrates was more obvious at the injection site, since a significant change in the phosphorylation of AKT substrates in the frontal cortex or cerebellum between the two hemispheres was not observed. […] To test the specificity/selectivity of ZaTa as the inhibitor of AKT1 versus the other major kinases, a series of in vitro kinase assays was performed at IC50 for AKT1 and at ten times higher concentrations. […]
(§2) Phosphorylation sites for kinases analyzed herein included Ser-235/236 S6 (a substrate for p70S6K), Tyr-207 CRKL (a substrate for Abl; Zipfel, et al. (2004) supra), Ser-241 PDK1 (a substrate for PI3K), Tyr-1022/1023 JAK1 (a substrate for JAK3; Wang, et al. (2003) supra), Ser-421 Huntingtin (a substrate for SGK; Rangone, et al. (2004) supra), Tyr-783 PLC (a substrate for TrkB; Middlemas, et al. (1994) supra), and Ser-338 cRaf (a substrate for PAK3; King, et al. (1998) supra).

Experiment [5] addresses PAK3 (Homo sapiens, UniProt O75914). In words: Cell-based kinase assay, phosphorylation of intracellular substrate (Ser-338 cRaf). As for the experimental part: as §1, §2

Where no end group is shown, it is not given here. red fluorescent dye = not defined here

Sequence of PAK3 (O75914 whole entry, species assumed): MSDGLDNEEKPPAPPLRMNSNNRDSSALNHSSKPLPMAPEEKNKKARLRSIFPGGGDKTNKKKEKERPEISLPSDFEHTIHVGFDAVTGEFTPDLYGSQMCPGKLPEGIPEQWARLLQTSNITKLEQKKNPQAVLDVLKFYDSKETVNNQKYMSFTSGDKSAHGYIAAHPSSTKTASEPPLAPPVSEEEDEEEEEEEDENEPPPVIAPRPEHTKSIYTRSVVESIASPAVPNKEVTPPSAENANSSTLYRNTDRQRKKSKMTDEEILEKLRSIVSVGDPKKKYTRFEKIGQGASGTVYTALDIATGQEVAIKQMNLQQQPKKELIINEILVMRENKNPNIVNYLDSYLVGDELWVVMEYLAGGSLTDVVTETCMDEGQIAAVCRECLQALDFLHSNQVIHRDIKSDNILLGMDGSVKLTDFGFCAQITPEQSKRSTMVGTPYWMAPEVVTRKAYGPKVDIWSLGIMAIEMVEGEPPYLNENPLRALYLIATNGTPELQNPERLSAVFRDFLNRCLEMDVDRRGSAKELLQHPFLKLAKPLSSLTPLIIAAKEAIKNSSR
Sequence of Abl (P00519 whole entry, species assumed): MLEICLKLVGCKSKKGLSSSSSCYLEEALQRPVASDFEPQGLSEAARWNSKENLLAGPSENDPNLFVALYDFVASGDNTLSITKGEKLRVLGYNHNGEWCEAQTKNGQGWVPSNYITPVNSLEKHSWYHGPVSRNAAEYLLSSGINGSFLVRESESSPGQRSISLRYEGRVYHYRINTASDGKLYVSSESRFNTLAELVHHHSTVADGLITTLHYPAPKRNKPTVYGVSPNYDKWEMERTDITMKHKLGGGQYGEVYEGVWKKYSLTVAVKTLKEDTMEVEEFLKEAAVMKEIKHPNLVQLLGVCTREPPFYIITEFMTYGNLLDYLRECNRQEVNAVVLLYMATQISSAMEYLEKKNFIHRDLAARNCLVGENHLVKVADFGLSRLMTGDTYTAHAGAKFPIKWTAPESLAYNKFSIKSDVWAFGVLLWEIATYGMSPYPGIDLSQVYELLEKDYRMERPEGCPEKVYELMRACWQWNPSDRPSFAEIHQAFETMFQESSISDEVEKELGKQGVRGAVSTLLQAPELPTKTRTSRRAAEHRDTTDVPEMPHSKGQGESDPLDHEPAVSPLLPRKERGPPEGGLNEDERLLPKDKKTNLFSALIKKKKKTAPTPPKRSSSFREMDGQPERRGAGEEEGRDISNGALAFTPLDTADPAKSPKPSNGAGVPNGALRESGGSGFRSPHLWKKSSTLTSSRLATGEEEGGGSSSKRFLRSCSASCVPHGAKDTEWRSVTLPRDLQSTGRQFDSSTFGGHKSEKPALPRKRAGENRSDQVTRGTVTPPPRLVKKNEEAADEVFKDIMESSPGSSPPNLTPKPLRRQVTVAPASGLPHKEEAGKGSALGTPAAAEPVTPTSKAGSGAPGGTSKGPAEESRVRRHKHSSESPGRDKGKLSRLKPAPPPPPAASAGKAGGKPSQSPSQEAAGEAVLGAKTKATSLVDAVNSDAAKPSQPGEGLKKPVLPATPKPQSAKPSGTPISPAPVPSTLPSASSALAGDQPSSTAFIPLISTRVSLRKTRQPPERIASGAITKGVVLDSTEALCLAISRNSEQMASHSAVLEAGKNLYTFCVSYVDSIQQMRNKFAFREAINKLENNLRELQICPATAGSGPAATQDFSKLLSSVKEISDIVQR

AKRVKGRTWTLCGTPEY [ZaTa]: in experiment [1], the “inhibition of Abl” value is recorded as 42%. Moreover, in experiment [2], the “changes in phosphorylation level of PKA, PKC and CDKs substrates” value is reported as “not observed”. Besides, the “phosphorylation level of AKT substrates in cells entered by ZaTa” value in experiment [3] is on record as “decrease in the phosphorylation level of AKT substrates”.
Regarding “labeled ZaTa: ZaTa peptide labeled with a red fluorescent dye at its N-terminus ({red fluorescent dye}-AKRVKGRTWTLCGTPEY; reading uncertain)”, the “inhibition of PI3K in cells” value in experiment [4] is “did not cause inhibition”. Besides, the “inhibition of PAK3 in cells” value in experiment [5] is “did not cause inhibition”.
